# Laboratory results published in patent US20210386367A1, “DEVICES AND SYSTEMS FOR GASTROINTESTINAL MICROBIOME DETECTION AND MANIPULATION” (Progenity, Inc., priority 2018, published 2021).
# “Also recorded” adds a separate entry of the source. Read-outs that look alike come from different tables or passages of the source.
# Key:
# Clostridium spp. = experiment: Agar dilution MIC, 10 clinical isolates; type: cell-based; details: for Mode: modal MIC
# S. pyogenes ATCC 49399 = experiment: Broth microdilution MIC (time-kill study); type: cell-based, Streptococcus pyogenes
# B. ovatus MMX 3503 = experiment: Broth microdilution MIC (time-kill study); type: cell-based, Bacteroides ovatus
# E. coli ATCC 35218 = experiment: Time-kill assay; type: cell-based, Escherichia coli; details: 2×, 4×, 8× MIC; 2, 6, 24 hr
# [1] = test system: Bacteroides spp. (B. fragilis ATCC 25285, B. vulgatus, B. ovatus MMX 3503); experiment: Agar dilution MIC (spontaneous mutation study; strain in conditions); type: cell-based
# [2] = test system: E. coli (ATCC 25922, ATCC 35218, MMX 1312); experiment: Spontaneous mutation frequency assay; type: cell-based, Escherichia coli; details: for mutation rate / colonies on selection plates: E. coli MMX 1312; for Spontaneous Mutation Frequency: selection at 4× and 8× MIC, meropenem/ceftriaxone: isolates other than MMX 1312
# Method: (§1) Initial values of the MIC were determined by agar dilution in accordance with guidelines from the Clinical and Laboratory Standards Institute (CLSI; (1) “Methods for Dilution Antimicrobial Susceptibility Tests for Bacteria That Grow Aerobically; Approved Standard; 11th ed.,” CLSI standard M07, 2018; (2) “Methods for Antimicrobial Susceptibility Testing of Anaerobic Bacteria; Approved Standard—Eighth Edition,” CLSI document M11-A8, 2012.).
# The agar plates were prepared by mixing a ratio of 1.0 mL of concentrated drug to 49.0 mL of the appropriate molten (47° C.) agar; the drug-supplemented agar was mixed, poured into 15-by-150 mm petri dishes and allowed to solidify and dry at room temperature prior to inoculation. […] Each plate was allowed to cool at room temperature for at least 1 hr.
# The isolates were streaked onto the appropriate agar medium and incubated for 20 hr (aerobes) or 48 hr (Bacteroides under anaerobic conditions). Using a sterile swab, several well-isolated colonies were removed and resuspended in sterile saline at a heavy cell density. Each plate was inoculated with 0.5 mL of the cell suspension (each test concentration was inoculated in duplicate). The target inoculum for each spontaneous mutation plate was 10^9-10 CFU. In addition, a portion of the inoculum from each isolate was enumerated by making dilutions, spreading on agar and counting colonies.
# Once the inoculum was absorbed into the agar, the plates were incubated at 35° C. Aerobes were examined at 24 and 48 hr, and resulting colonies were counted. Bacteroides were incubated anaerobically for 48-72 hr in the anaerobe chamber and colonies were counted.
# Colony counts from plates used to enumerate the initial inoculum density and from the resulting spontaneous mutation frequency test plates were determined. The inoculum size was calculated as CFU inoculated per plate. The spontaneous mutation frequency was calculated using the counts from duplicate spontaneous mutation assay test plates as follows:
# (§2) If there were no colonies on the antibiotic selection plates, the spontaneous mutation frequency was reported as less than the frequency observed with one colony to indicate that the spontaneous mutation frequency was less than the limit of detection (one CFU). […] The mutation prevention concentration (MPC) was reported as the lowest concentration for which no mutants were selected.
# [3] = test system: E. coli spontaneous mutants; experiment: Broth microdilution MIC of spontaneous mutants; type: cell-based, Escherichia coli; details: for MIC: Escherichia coli
# In short: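 Spontaneous mutants from drug selection plates were tested by CLSI broth microdilution in MHB II with two-fold serial drug dilutions. Inoculum was about 5×10^5 CFU/mL, incubated aerobically at 35° C. for 18-20 hr. MIC was the lowest concentration inhibiting visible growth.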
# [4] = test system: E. coli, Streptococcus spp., and Bacteroides spp. isolates; type: cell-based
# Method: as §1, §2
# S. pneumoniae ATCC 49619 = details: cited from earlier work
# [5] = test system: Streptococcus spp. spontaneous mutants; details: S. pneumoniae ATCC 49619; CLSI QC range shown in parentheses; cited from earlier work
# [6] = 10 Clostridium spp. clinical isolates
# [7] = Streptococcus pyogenes, ATCC49399, broth microdilution, read-out: MIC
# [8] = Bacteroides fragilis, ATCC25285, read-out: Agar MIC
# [9] = Bacteroides ovatus, ATCC25285, read-out: Agar MIC
# [10] = Phocaeicola vulgatus, ATCC 25285 / ATCC 8482, read-out: Agar MIC
# [11] = over evaluated Bacteroides spp., read-out: MIC values (agar dilution)
# [12] = ATCC25922, E. coli ATCC 25922, selected on rifaximin 4X MIC, Colony A
# [13] = ATCC25922, E. coli ATCC 25922, selected on rifaximin 4X MIC, Colony B
# [14] = ATCC25922, E. coli ATCC 25922, selected on rifaximin 8X MIC, Colony A
# [15] = ATCC25922, E. coli ATCC 25922 Parent (Table 52)
# [16] = ATCC35218, E. coli ATCC 35218, selected on rifaximin 4X MIC, Colony A
# [17] = ATCC35218, E. coli ATCC 35218, selected on rifaximin 4X MIC, Colony B
# [18] = ATCC35218, E. coli ATCC 35218, selected on rifaximin 8X MIC, Colony A
# [19] = ATCC35218, E. coli ATCC 35218, selected on rifaximin 8X MIC, Colony B
# [20] = ATCC35218, E. coli ATCC 35218 Parent (Table 52)
# [21] = E. coli MMX 1312, selected on ceftriaxone 4X MIC, Colony A
# [22] = E. coli MMX 1312, selected on ceftriaxone 4X MIC, Colony B
# [23] = E. coli MMX 1312, selected on ceftriaxone 4X MIC, Colony C
# [24] = E. coli MMX 1312, selected on ceftriaxone 8X MIC, Colony A
# [25] = E. coli MMX 1312, selected on ceftriaxone 8X MIC, Colony B
# [26] = E. coli MMX 1312, selected on ceftriaxone 8X MIC, Colony C
# [27] = E. coli MMX 1312, selected on rifaximin 4X MIC, Colony A
# [28] = E. coli MMX 1312, selected on rifaximin 4X MIC, Colony B
# [29] = E. coli MMX 1312, selected on rifaximin 8X MIC, Colony A
# [30] = E. coli MMX 1312, selected on rifaximin 8X MIC, Colony B
# [31] = E. coli MMX 1312 Parent (Table 49)
# [32] = E. coli MMX 1312 Parent (Table 52)
# [33] = E. coli MMX 1312 mutant selected on meropenem 4X MIC, colony A
# [34] = E. coli MMX 1312 mutant selected on meropenem 4X MIC, colony B
# [35] = E. coli MMX 1312 mutant selected on meropenem 4X MIC, colony C
# [36] = E. coli MMX 1312 mutant selected on meropenem 8X MIC, colony A
# [37] = E. coli MMX 1312 mutant selected on meropenem 8X MIC, colony B
# [38] = E. coli MMX 1312 mutant selected on meropenem 8X MIC, colony C
structure (smiles),measurement,setting,value
CO/N=C(\C(=O)N[C@@H]1C(=O)N2C(C(=O)O)=C(CSc3nc(=O)c(=O)[nH]n3C)CS[C@H]12)c1csc(N)n1 [ceftriaxone],isolates susceptible,Clostridium spp.,all the isolates were susceptible
same,% S,Clostridium spp.; [6],100%
same,MIC50,Clostridium spp.; [6],8 µg/mL
same,MIC90,Clostridium spp.; [6],16 µg/mL
same,MIC range,Clostridium spp.; [6],0.5 to 16 µg/mL
same,MIC50,Clostridium spp.; Clostridium,8 µg/mL
same,MIC90,Clostridium spp.; Clostridium,16 µg/mL
same,Mode,Clostridium spp.; [6],16 µg/mL
same,MIC,S. pyogenes ATCC 49399; S. pyogenes ATCC 49399,0.015 µg/mL
same,MIC,S. pyogenes ATCC 49399; [7],0.015 µg/mL
same,MIC,"B. ovatus MMX 3503; Bacteroides ovatus, MMX3503, B. ovatus MMX 3504 (so in the source)",> 128 µg/mL
same,MIC,"B. ovatus MMX 3503; Bacteroides ovatus, MMX3503, broth microdilution",> 128 µg/mL
same,MIC,B. ovatus MMX 3503; broth microdilution,128 µg/mL
same,time-kill kinetics outcome (bactericidal = ≥3 log reduction in CFU per mL),E. coli ATCC 35218,bactericidal at 24 hr at 4× and 8×MIC
same,MIC,"[1]; B. fragilis and B. ovatus isolates, read-out: initial MIC values (agar dilution)",128 µg/mL
same,MIC,[1]; [8],128 µg/mL
same,MIC,[1]; [9],128 µg/mL
same,MIC,[1]; [10],4 µg/mL
same,MIC,[1]; [11],4 to 128 µg/mL
same,mutation rate,[2],indeterminate
same,Spontaneous Mutation Frequency,[2],≤ 7.41×10^−9
same,MIC,[3]; [12],0.03 µg/mL
same,MIC,[3]; [13],0.03 µg/mL
same,MIC,[3]; [14],0.03 µg/mL
same,MIC,[3]; [15],0.12 µg/mL
same,MIC,[3]; [16],0.03 µg/mL
same,MIC,[3]; [17],0.03 µg/mL
same,MIC,[3]; [18],0.06 µg/mL
same,MIC,[3]; [19],0.03 µg/mL
same,MIC,[3]; [20],0.03 µg/mL
same,MIC,[3]; [21],3 µg/mL
same,MIC,[3]; [22],4 µg/mL
same,MIC,[3]; [23],8 µg/mL
same,MIC,[3]; [24],3 µg/mL
same,MIC,[3]; [25],3 µg/mL
same,MIC,[3]; [26],4 µg/mL
same,MIC,[3]; [27],2 µg/mL
same,MIC,[3]; [28],2 µg/mL
same,MIC,[3]; [29],8 µg/mL
same,MIC,[3]; [30],8 µg/mL
same,MIC,[3]; E. coli MMX 1312 Parent,4 µg/mL
same,MIC,[3]; [31],4 µg/mL
same,MIC,[3]; [32],4 µg/mL
same,MIC,[3]; [33],4 µg/mL
same,MIC,[3]; [34],8 µg/mL
same,MIC,[3]; [35],4 µg/mL
same,MIC,[3]; [36],4 µg/mL
same,MIC,[3]; [37],4 µg/mL
same,MIC,[3]; [38],4 µg/mL
same,overall MPC values,"[4]; remaining isolates (E. coli, Streptococcus spp.)",0.12 to 0.25 µg/mL
same,CLSI QC range (MIC),S. pneumoniae ATCC 49619,(0.03-0.12) μg/mL
same,"MIC, CLSI QC range",[5],(0.03-0.12)^1 μg/mL
C[C@@H](O)[C@H]1C(=O)N2C(C(=O)O)=C(S[C@@H]3CN[C@H](C(=O)N(C)C)C3)[C@H](C)[C@H]12 [meropenem],isolates susceptible,Clostridium spp.,One hundred
same,relative activity among drugs tested,Clostridium spp.,meropenem and metronidazole had similar activity; also recorded: most active agent
same,% S,Clostridium spp.; [6],100%
same,MIC50,Clostridium spp.; [6],1 µg/mL
same,MIC90,Clostridium spp.; [6],2 µg/mL
same,MIC range,Clostridium spp.; [6],0.06 to 2 µg/mL
same,MIC50,Clostridium spp.; Clostridium,1 µg/mL
same,MIC90,Clostridium spp.; Clostridium,2 µg/mL
same,Mode,Clostridium spp.; [6],1 µg/mL
same,MIC,S. pyogenes ATCC 49399; S. pyogenes ATCC 49399,0.004 µg/mL
same,MIC,S. pyogenes ATCC 49399; [7],0.004 µg/mL
same,MIC,B. ovatus MMX 3503; B. ovatus MMX 3504 (so in the source),0.12 µg/mL
same,MIC,"B. ovatus MMX 3503; Bacteroides ovatus, MMX3503, broth microdilution, read-out: MIC",0.12 µg/mL
same,time-kill kinetics outcome (bactericidal = ≥3 log reduction in CFU per mL),E. coli ATCC 35218,rapid killing and bactericidal activity at the two higher concentrations at 24 hr
same,MIC,[1]; [8],0.12 µg/mL
same,MIC,[1]; [9],0.12 µg/mL
same,MIC,[1]; [10],0.12 µg/mL
same,MIC,[1]; [11],0.008 to 0.12 µg/mL
same,colonies on selection plates,[2],too numerous to count
same,mutation rate,[2],indeterminate
same,colonies on selection plates,[2]; listed as Meropenem,only E. coli MMX 1312 demonstrated growth
same,Spontaneous Mutation Frequency,[2],≤ 7.41×10^−9
same,MIC,[3]; [12],0.008 µg/mL
same,MIC,[3]; [13],0.008 µg/mL
same,MIC,[3]; [14],0.008 µg/mL
same,MIC,[3]; [15],0.03 µg/mL
same,MIC,[3]; [16],0.015 µg/mL
same,MIC,[3]; [17],0.015 µg/mL
same,MIC,[3]; [18],0.015 µg/mL
same,MIC,[3]; [19],0.015 µg/mL
same,MIC,[3]; [20],0.015 µg/mL
same,MIC,[3]; [21],0.015 µg/mL
same,MIC,[3]; [22],0.015 µg/mL
same,MIC,[3]; [23],0.03 µg/mL
same,MIC,[3]; [24],0.015 µg/mL
same,MIC,[3]; [25],0.03 µg/mL
same,MIC,[3]; [26],0.03 µg/mL
same,MIC,[3]; [27],0.008 µg/mL
same,MIC,[3]; [28],0.008 µg/mL
same,MIC,[3]; [29],0.015 µg/mL
same,MIC,[3]; [30],0.015 µg/mL
same,MIC,[3]; E. coli MMX 1312 Parent,0.015 µg/mL
same,MIC,[3]; [31],0.015 µg/mL
same,MIC,[3]; [32],0.015 µg/mL
same,MIC,[3]; [33],0.015 µg/mL
same,MIC,[3]; [34],0.015 µg/mL
same,MIC,[3]; [35],0.015 µg/mL
same,MIC,[3]; [36],0.015 µg/mL
same,MIC,[3]; [37],0.015 µg/mL
same,MIC,[3]; [38],0.015 µg/mL
same,broth microdilution MIC of selected colonies relative to parent strain,[3]; colonies selected at 4× and 8× the MIC,consistent with that of the parent strain
same,propensity for spontaneous resistance,[4]; SIBO pathogens in vitro,little propensity for resistance to develop spontaneously
same,MPC values,[4]; across the evaluated isolates,equivalent to 4× the MIC
same,CLSI QC range (MIC),S. pneumoniae ATCC 49619,(0.03-0.25)^1 μg/mL
same,"MIC, CLSI QC range",[5],(0.03-0.25) μg/mL
